The values that follow are results of earlier work, collected in patent US20110189281A1, “TELMISARTAN AND HYDROCHLOROTHIAZIDE COMBINATION THERAPY” (BOEHRINGER INGELHEIM INTERNATIONAL GMBH, priority 2004, published 2011).

For the data set the following is noted: physiological pH range of the gastrointestinal tract, pH 1 to 7; free acid form.

With `CCCc1nc2c(C)cc(-c3nc4ccccc4n3C)cc2n1Cc1ccc(-c2ccccc2C(=O)O)cc1` [Telmisartan, 4′-[(1,4′-dimethyl-2′-propyl-[2,6′-bi-1H-benzimidazol]-1′-yl)methyl]-[1,1′-biphenyl]-2-carboxylic acid], the “Solubility in aqueous systems” value was “very poor solubility”.
